Experimental data published in patent publication US20230219965A1 (KSQ Therapeutics, Inc., priority 2020, published 2023).
Where two headings read alike, the source gives them in different places.

How the values were obtained:
USP1/UAF1 enzyme = USP1/UAF1 enzyme (Homo sapiens, UniProt O94782); assay: USP1/UAF1 deubiquitination assay (ubiquitin-rhodamine 110 substrate); type: biochemical; details: read-out: USP1 IC50 (Ub-Rho)
Summary of the method: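 0.05 nM USP1/UAF1 was preincubated 10 min with compounds (dose response from 10 μM) in 50 mM Tris-HCl pH 7.8, 0.5 mM EDTA, 0.01% BSA, 1 mM DTT, 0.01% Tween-20. 150 nM ubiquitin-rhodamine 110 started the reaction, read kinetically 30 min at Ex480/Em540; IC50 by four-parameter fit versus no-enzyme and DMSO controls.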

[1] = tested on: Ub-PCNA levels in the nucleus of ES2 cells (USP1 activity); assay: ES2 Ub-PCNA immunofluorescence (IF) assay; type: cell-based; details: Homo sapiens, ES-2; ES2 cells, 3 hours, Ub-PCNA immunofluorescence; read-out: USP1 IC50 (Ub-PCNA)
Summary of the method: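 Cells plated overnight, then compound-treated for 3 h at 37° C (0.3% DMSO final), methanol-fixed and stained with anti-Ub-PCNA plus DAPI. Per-nucleus Ub-PCNA intensity imaged; cells above the 95% cutoff of untreated wells counted as positive, and percent positive cells used to derive AC50.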

[2] = ADME solubility determination in PBS at pH 2.0 and pH 7.4; type: physicochemical; details: phosphate buffered saline, 25 °C, thermodynamic from solid
Summary of the method: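 Dried 10 mM DMSO stock residues taken up in PBS pH 7.4 or pH 2.0, shaken 24 h at 25° C. After centrifugation, supernatant quantified by LC-MS/MS against a standard of known concentration, with a dilution factor applied.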

[3] = Liver microsomal metabolic stability, rat liver microsomes (RLM); details: rat, liver microsomes, t1/2 (min) in RLM, 1 μM compound, 1 mg/mL microsomes, NADPH
[4] = Liver microsomal metabolic stability, human liver microsomes (HLM); details: human, liver microsomes
[5] = pH 2, aqueous buffer, PBS pH 2.0, 25° C., read-out: Solubility at pH 2.0
[6] = pH 7.4, aqueous buffer, PBS pH 7.4, 25° C., read-out: Solubility at pH 7.4

Sequence of USP1/UAF1 enzyme (O94782 whole entry): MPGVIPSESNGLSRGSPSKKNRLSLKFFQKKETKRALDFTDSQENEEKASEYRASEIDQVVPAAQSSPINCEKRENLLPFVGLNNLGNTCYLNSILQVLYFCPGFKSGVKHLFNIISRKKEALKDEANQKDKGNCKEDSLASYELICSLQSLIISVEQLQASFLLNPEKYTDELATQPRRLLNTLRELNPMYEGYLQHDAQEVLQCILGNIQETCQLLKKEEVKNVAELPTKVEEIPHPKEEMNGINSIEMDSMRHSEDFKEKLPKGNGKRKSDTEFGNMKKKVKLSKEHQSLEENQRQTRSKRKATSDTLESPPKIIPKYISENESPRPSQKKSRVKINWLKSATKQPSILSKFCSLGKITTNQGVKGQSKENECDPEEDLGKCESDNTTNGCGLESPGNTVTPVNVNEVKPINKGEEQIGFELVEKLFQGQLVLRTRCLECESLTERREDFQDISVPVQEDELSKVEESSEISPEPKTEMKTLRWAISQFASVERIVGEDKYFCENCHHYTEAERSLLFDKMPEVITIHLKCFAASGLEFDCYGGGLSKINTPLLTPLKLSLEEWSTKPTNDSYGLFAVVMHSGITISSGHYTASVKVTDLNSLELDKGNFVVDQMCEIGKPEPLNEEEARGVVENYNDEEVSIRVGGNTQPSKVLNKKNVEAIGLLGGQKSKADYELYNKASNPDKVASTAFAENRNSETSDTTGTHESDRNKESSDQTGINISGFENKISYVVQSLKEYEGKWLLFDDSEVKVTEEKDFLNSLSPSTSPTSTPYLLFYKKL
Sequence of USP1/UAF1 enzyme (Q8TAF3 whole entry partner): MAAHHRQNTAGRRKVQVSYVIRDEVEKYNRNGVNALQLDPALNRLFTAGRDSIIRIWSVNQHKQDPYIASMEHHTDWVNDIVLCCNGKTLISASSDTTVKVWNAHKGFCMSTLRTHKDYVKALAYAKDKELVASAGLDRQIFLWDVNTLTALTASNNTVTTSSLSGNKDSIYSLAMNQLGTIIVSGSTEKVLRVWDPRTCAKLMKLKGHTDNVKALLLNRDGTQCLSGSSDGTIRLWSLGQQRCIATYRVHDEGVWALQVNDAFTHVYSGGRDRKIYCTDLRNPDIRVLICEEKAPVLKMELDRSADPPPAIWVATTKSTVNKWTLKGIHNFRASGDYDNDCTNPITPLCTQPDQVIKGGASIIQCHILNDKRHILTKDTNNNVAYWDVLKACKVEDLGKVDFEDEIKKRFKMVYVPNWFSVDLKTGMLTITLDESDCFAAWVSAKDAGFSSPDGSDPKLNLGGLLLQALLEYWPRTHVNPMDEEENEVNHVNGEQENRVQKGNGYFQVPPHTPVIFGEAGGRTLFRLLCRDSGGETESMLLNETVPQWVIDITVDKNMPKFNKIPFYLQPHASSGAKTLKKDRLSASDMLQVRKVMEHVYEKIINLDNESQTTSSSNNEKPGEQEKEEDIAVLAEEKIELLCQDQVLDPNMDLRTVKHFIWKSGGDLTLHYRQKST

Structure (SMILES) | IC50 (USP1/UAF1 enzyme) [nM] | IC50 [1] [nM] | solubility at 24 h [2, 5] [µM] | solubility at 24 h [2, 6] [µM] | half-life at 1 μM [3] [min] | half-life at 1 μM [4] [min]
COc1ncnc(C2CC2)c1-c1nn2c(c1C)N(Cc1ccc(-c3nc(C(F)(F)F)cn3C)cc1)C(=O)CC2 [Example 35, 2-(4-cyclopropyl-6-methoxypyrimidin-5-yl)-3-methyl-4-(4-(1-methyl-4-(trifluoromethyl)-1H-imidazol-2-yl)benzyl)-6,7-dihydropyrazolo[1,5-α]pyrimidin-5(4H)-one] | 100 to 500 | > 500 | < 10 | < 10 | > 25 | < 25
Cc1cnn(C(C)C)c1-c1nc2n(n1)CCC(=O)N2Cc1ccc(-c2nc(C(F)(F)F)cn2C(C)C)cc1 [Example 38] | < 100 | < 100 | < 10 | < 10 | < 25 | < 25
CC(C)n1cc(C(F)(F)F)nc1-c1ccc(CN2C(=O)CCn3nc(-c4c(Cl)cnn4C(C)C)nc32)cc1F [Example 40] | < 100 | 100 to 500 | < 10 | < 10 | > 25 | > 25
COc1ncnc(C2CC2)c1-c1nc2n(n1)CCC(=O)N2Cc1ccc(-c2nc(C(F)(F)F)cn2C)cc1 [Example 43] | < 100 | 100 to 500 | ≥ 10 | < 10 | > 25 | > 25
CCn1cc(C(F)(F)F)nc1-c1ccc(CN2C(=O)CCn3nc(-c4c(OC)ncnc4C4CC4)nc32)cc1F [Example 44] | < 100 | < 100 | < 10 | < 10 | > 25 | > 25
COc1cc(CN2C(=O)CCn3nc(-c4c(OC)ncnc4C(C)C)nc32)ccc1-c1nc(C(F)(F)F)cn1C(C)C [Example 46] | 100 to 500 | 100 to 500 | ≥ 10 | ≥ 10 | > 25 | > 25
CCn1cc(C(F)(F)F)nc1-c1ccc(CN2c3cc(-c4c(OC)ncnc4C4CC4)nn3CCC2C)cc1F (stereo not drawn) [Example 49] | < 100 | < 100 | ≥ 10 | < 10 | < 25 | < 25
COc1ncnc(C2CC2)c1-c1cc2n(n1)CCCN2Cc1ccc(-c2nc(C(F)(F)F)cn2C(C)C)c(F)c1 [Example 63] | < 100 | < 100 | ≥ 10 | < 10 | < 25 | < 25
CCn1cc(C(F)(F)F)nc1-c1ccc(CN2CCCn3nc(-c4c(OC)ncnc4C4CC4)cc32)cc1F [Example 64] | < 100 | < 100 | ≥ 10 | < 10 | < 25 | < 25
CCn1cc(C(F)(F)F)nc1-c1ccc(C(C)N2CCCn3nc(-c4c(OC)ncnc4C4CC4)cc32)cc1 (stereo not drawn) [Example 66] | < 100 | < 100 | ≥ 10 | < 10 | < 25 | < 25
CCn1cc(C(F)(F)F)nc1-c1ccc(CN2C(=O)CCn3nc(-c4c(OC)ncnc4C4CC4)cc32)cc1 [Example 71, 2-(4-cyclopropyl-6-methoxypyrimidin-5-yl)-4-(4-(1-ethyl-4-(trifluoromethyl)-1H-imidazol-2-yl)benzyl)-6,7-dihydropyrazolo[1,5-α]pyrimidin-5(4H)-one] | < 100 | < 100 | < 10 | < 10 | > 25 | > 25
COc1ncnc(C2CC2)c1-c1cc2n(n1)CCC(=O)N2Cc1ccc(-c2nc(C(F)(F)F)cn2C(C)C)cc1 [Example 72] | < 100 | 100 to 500 | < 10 | < 10 | > 25 | > 25

Other lines, results leading:

IC50 (USP1/UAF1 enzyme) [nM] | IC50 [1] [nM] | solubility at 24 h [2, 5] [µM] | solubility at 24 h [2, 6] [µM] | half-life at 1 μM [3] [min] | half-life at 1 μM [4] [min] | Structure (SMILES)
< 100 | < 100 | < 10 | < 10 | < 25 | < 25 | Cc1cnn(C(C)C)c1-c1nc2n(n1)CCC(=O)N2Cc1ccc(-c2nc(C(F)(F)F)cn2C)cc1 [Example 37, 2-(1-isopropyl-4-methyl-1H-pyrazol-5-yl)-4-(4-(1-methyl-4-(trifluoromethyl)-1H-imidazol-2-yl)benzyl)-6,7-dihydro-[1,2,4]triazolo[1,5-α]pyrimidin-5(4H)-one]
< 100 | < 100 | < 10 | < 10 | > 25 | > 25 | CC(C)n1ncc(Cl)c1-c1nc2n(n1)CCC(=O)N2Cc1ccc(-c2nc(C(F)(F)F)cn2C)cc1 [Example 39]
< 100 | < 100 | < 10 | < 10 | > 25 | > 25 | CC(C)n1cc(C(F)(F)F)nc1-c1ccc(CN2C(=O)CCn3nc(-c4c(Cl)cnn4C(C)C)nc32)cc1 [Example 41]
< 100 | < 100 | < 10 | < 10 | > 25 | > 25 | CCn1cc(C(F)(F)F)nc1-c1ccc(CN2C(=O)CCn3nc(-c4c(Cl)cnn4C(C)C)nc32)cc1F [Example 42]
< 100 | < 100 | < 10 | < 10 | < 25 | < 25 | CC1CCn2nc(-c3c(Cl)cnn3C(C)C)cc2N1Cc1ccc(-c2nc(C(F)(F)F)cn2C(C)C)c(F)c1 (stereo not drawn) [Example 50]
< 100 | 100 to 500 | < 10 | < 10 | < 25 | < 25 | Cc1cnn(C(C)C)c1-c1cc2n(n1)CCCN2Cc1ccc(-c2nc(C(F)(F)F)nn2C)cc1 [Example 53]
< 100 | < 100 | ≥ 10 | < 10 | < 25 | < 25 | Cc1cnn(C(C)C)c1-c1cc2n(n1)CCCN2Cc1ccc(-c2nc(C(F)(F)F)cn2C(C)C)cc1 [Example 54]
< 100 | < 100 | ≥ 10 | < 10 | < 25 | < 25 | Cc1cnn(C(C)C)c1-c1cc2n(n1)CCCN2Cc1ccc(-c2nc(C(F)(F)F)cn2C)c(F)c1 [Example 55]
< 100 | < 100 | < 10 | < 10 | < 25 | < 25 | COc1cc(C(F)(F)F)nn1-c1ccc(CN2CCCn3nc(-c4c(C)cnn4C(C)C)cc32)cc1F [Example 57]
< 100 | < 100 | ≥ 10 | < 10 | < 25 | < 25 | COc1ncnc(C2CC2)c1-c1cc2n(n1)CCCN2Cc1ccc(-c2nc(C(F)(F)F)cn2C(C)C)cc1 [Example 58]
< 100 | < 100 | < 10 | < 10 | < 25 | < 25 | CC(C)n1cc(C(F)(F)F)nc1-c1ccc(CN2CCCn3nc(-c4c(Cl)cnn4C(C)C)cc32)cc1F [Example 59]
< 100 | < 100 | < 10 | < 10 | < 25 | < 25 | CC(C)n1ncc(Cl)c1-c1cc2n(n1)CCCN2Cc1ccc(-c2nc(C(F)(F)F)cn2C)c(F)c1 [Example 61]
< 100 | < 100 | < 10 | < 10 | < 25 | < 25 | CC(C)n1ncc(Cl)c1-c1cc2n(n1)CCCN2Cc1ccc(-c2nc(C(F)(F)F)cn2CCF)cc1 [Example 62]
< 100 | < 100 | < 10 | < 10 | < 25 | < 25 | CCn1cc(C(F)(F)F)nc1-c1ccc(C(C)N2CCCn3nc(-c4c(Cl)cnn4C(C)C)cc32)cc1 (stereo not drawn) [Example 65]
100 to 500 | > 500 | < 10 | < 10 | < 25 | < 25 | Cc1cnn(C(C)C)c1-c1cc2n(n1)CCC(=O)N2Cc1ccc(-c2nc(C(F)(F)F)c[nH]2)cc1 [Example 70]
< 100 | 100 to 500 | < 10 | < 10 | < 25 | < 25 | Cc1cnn(C(C)C)c1-c1cc2n(n1)CCC(=O)N2Cc1ccc(-c2nc(C(F)(F)F)cn2C(C)C)cc1 [Example 73]
